# EPA's ToxValDB 9.5
# Values joined by “and” are separate entries in the source; they are usually repeats but may differ in a detail not shown here. Equal values may be shown once.
# What was measured:
# Rattus norvegicus [1] = test system: Rattus norvegicus
# Oryctolagus sp. [2] = details: acute, dermal
# Canidae = details: oral; for NOAEL: diet, Beagle
# Rattus norvegicus [3] = details: subchronic; duration: 90 days; oral; gavage; M/F; Wistar; Clinical Observation: Salivation Discolored urine + Functional Observational Battery: Decreased landing foot-splay + Body Weight Changes: …
# Rattus norvegicus [4] = test system: Rattus norvegicus; remark: listed apart in the source
# Oryctolagus sp. [5] = details: developmental; inhalation; M/F; developmental toxicity
# Rattus norvegicus [6] = details: chronic; duration: 104 weeks; inhalation; M/F; Fischer 344; renal
# Mus musculus [7] = details: repeat dose other; oral
# Mus musculus [8] = details: oral
# Bird = details: oral, diet
# [9] = chronic, oral, F, liver and kidney toxicity
# [10] = chronic, duration: 118 weeks, oral, diet, F, Sprague-Dawley
# [11] = chronic, duration: 118 weeks, oral, diet, M, Sprague-Dawley
# [12] = developmental, duration: 20 days, oral, drinking water, Osborne-Mendel
# [13] = reproduction developmental, duration: 27 weeks, oral, diet, Charles River Ceesarean albino, generation: F0
# [14] = reproduction developmental, duration: 118 weeks, oral, diet, F, Sprague-Dawley
# [15] = reproduction developmental, duration: 118 weeks, oral, diet, M, Sprague-Dawley
# [16] = reproduction developmental, oral, diet, Crl:CD(SD)
# [17] = subchronic, duration: 90 days, oral, diet
compound,measurement,setting,value
CC(C)CCCCCCOC(=O)CCCCC(=O)OCCCCCCC(C)C [Diisononyl adipate],LD50,"Rattus norvegicus [1]; acute, oral, gavage",> 10000 mg/kg
same,NOAEL,"Rattus norvegicus [1]; subchronic, duration: 13 weeks, oral, diet",500 mg/kg-day
same,LD50,Oryctolagus sp. [2],> 3160 mg/kg
same,NOAEL,"Canidae; subchronic, duration: 13 weeks",274 mg/kg-day
CCc1ccccc1 [Ethylbenzene],NOAEL,Rattus norvegicus [3],75 mg/kg-day
same,LOAEL,Rattus norvegicus [4]; [9],408 mg/kg-day
same,NOEL,Rattus norvegicus [4]; [9],97.1 mg/kg-day and 136 mg/kg-day
same,LOAEL,"Rattus norvegicus [4]; developmental, inhalation, M/F, developmental toxicity",4340 mg/m3
same,NOAEL,Oryctolagus sp. [5],434 mg/m3
same,LOAEL,Rattus norvegicus [6],326 mg/m3
[Hg+2].[S-2] [Mercury sulfide (HgS)],NOAEL,Mus musculus [7],13.2 mg/kg-day
COc1cc(S(=O)(=O)[O-])c(C)cc1N=Nc1c(O)ccc2cc(S(=O)(=O)[O-])ccc12.[Na+].[Na+],LD50,"Rattus norvegicus [1]; acute, oral, gavage, Sprague-Dawley",> 10000 mg/kg
same,LOAEL,Rattus norvegicus [1]; [10],3600 mg/kg-day
same,NOAEL,Rattus norvegicus [1]; [10],901 mg/kg-day
same,LOAEL,Rattus norvegicus [1]; [11],> 2830 mg/kg-day
same,NOAEL,Rattus norvegicus [1]; [11],2830 mg/kg-day
same,NOAEL,"Rattus norvegicus [1]; developmental, duration: 19 days, oral, gavage, Osborne-Mendel",1000 mg/kg-day
same,LOAEL,Rattus norvegicus [1]; [12],546 mg/kg-day
same,NOAEL,Rattus norvegicus [1]; [12],274 mg/kg-day
same,LOAEL,Rattus norvegicus [1]; [13],51900 ppm
same,NOAEL,Rattus norvegicus [1]; [13],13900 ppm
same,LOAEL,Rattus norvegicus [1]; [14],3600 mg/kg-day
same,NOAEL,Rattus norvegicus [1]; [14],901 mg/kg-day
same,LOAEL,Rattus norvegicus [1]; [15],> 2830 mg/kg-day
same,NOAEL,Rattus norvegicus [1]; [15],2830 mg/kg-day
same,NOAEL,"Rattus norvegicus [1]; reproduction developmental, duration: 19 days, oral, gavage, F, Osborne-Mendel",1000 mg/kg-day
same,NOAEL,"Rattus norvegicus [1]; reproduction developmental, duration: 20 days, oral, drinking water, F, Osborne-Mendel",939 mg/kg-day
same,LOAEL,"Rattus norvegicus [1]; reproduction developmental, duration: 20 days, oral, drinking water, Osborne-Mendel, generation: F1",546 mg/kg-day
same,LOAEL,Rattus norvegicus [1]; [16],51900 ppm
same,NOAEL,Rattus norvegicus [1]; [16],13900 ppm
same,NOAEL (% diet),"Mus musculus [8]; chronic, duration: 104 weeks, diet, CD1",> 5.19
same,LD50,"Canidae; acute, gavage, Dog Other",> 5000 mg/kg
CCC(CC)C(C)COC(=O)c1ccccc1C(=O)OCC(C)C(CC)CC (stereo unspecified) [Di-C7-9-branched and linear alkyl phthalates],LD50,"Rattus norvegicus [1]; acute, oral",> 22000 mg/kg
same,NOAEL (% diet),"Rattus norvegicus [1]; reproduction developmental, oral, diet, Sprague-Dawley, generation: F0",1
same,NOAEL (% diet),"Rattus norvegicus [1]; reproduction developmental, oral, diet, Sprague-Dawley, generation: F1",1
same,NOAEL,"Rattus norvegicus [1]; short-term, duration: 4 weeks, oral, diet",100 mg/kg-day
same,LD50,Mus musculus [8]; acute,> 26000 mg/kg
same,NOAEL,"Canidae; chronic, duration: 14 weeks",100 mg/kg-day
CC(C)(C)c1cc(CCC(=O)OCCSCCOC(=O)CCc2cc(C(C)(C)C)c(O)c(C(C)(C)C)c2)cc(C(C)(C)C)c1O,LC50,"Rattus norvegicus [1]; acute, inhalation, whole body",> 6300 mg/m3
same,LD50,"Rattus norvegicus [1]; acute, oral, gavage",> 5000 mg/kg
same,NOAEL,"Rattus norvegicus [1]; chronic, duration: 93 days, oral, diet, F",4.5 mg/kg-day
same,NOAEL,"Rattus norvegicus [1]; chronic, duration: 93 days, oral, diet, M",4.4 mg/kg-day
same,NOAEL,Rattus norvegicus [1]; [17],960 mg/kg-day
same,LD50,"Oryctolagus sp. [2]; occlusive, New Zealand",> 3000 mg/kg
same,NOAEL,"Canidae; subchronic, duration: 90 days",74 mg/kg-day
"Cc1cc(C(C)(C)c2ccc(O)c(C)c2)ccc1O [3,3'-Dimethylbisphenol A]",NOEL,"Bird; short-term, duration: 1 month, M, Chicken, body weight",0.3%
same,LOEL,"Bird; short-term, duration: 1 month, M, Chicken, mortality",0.3%
same,NOEL,"Bird; subchronic, duration: 12 week, M/F, White leghorn chicken, mortality",0.3%
same,LOEL,"Bird; subchronic, duration: 12 week, M, White leghorn chicken, body weight",0.3%
same,NOEL,"Bird; subchronic, duration: 12 week, M, White leghorn chicken, body weight + mortality",0.3%
Cc1c(Cc2cc(C(C)(C)C)c(O)c(C(C)(C)C)c2)c(C)c(Cc2cc(C(C)(C)C)c(O)c(C(C)(C)C)c2)c(C)c1Cc1cc(C(C)(C)C)c(O)c(C(C)(C)C)c1 [Ionox 330],LD50,"Rattus norvegicus [1]; acute, dermal, semiocclusive",> 2000 mg/kg
same,LD50,"Rattus norvegicus [1]; acute, injection, intraperitoneal, Sprague-Dawley",> 1000 mg/kg
same,LD50,"Rattus norvegicus [1]; acute, oral, Carworth 'E' and 'N' strains",> 5000 mg/kg
same,NOAEL,Rattus norvegicus [1]; [17],> 960 mg/kg-day
same,NOAEL,"Rattus norvegicus [1]; subchronic, duration: 90 days, oral, diet, albino",480 mg/kg-day
same,NOAEL,"Canidae; subchronic, duration: 90 days",185 mg/kg-day
